Experimental findings from patent publication US12121518B2, “PARP-1 and methods of use thereof” (The Board of Supervisors of Louisiana State University and …, priority 2017, dated 2024) are described below.

“Also recorded” adds a separate entry of the source.

The test system of the assay is APC^Min-induced tumor burden. As to the kind of experiment: APC^Min/+ spontaneous intestinal tumorigenesis mouse model. The note with it: APC^Min/+ mice; for intestinal tumor burden: assessed at 16 weeks of age. The assay is classed as in vivo. The source says:
If chronic inflammation is the sole mechanism by which PARP-1 participates in colon tumorigenesis, then the ability to severely block inflammation upon inhibition of the enzyme, pharmacologically or genetically, should almost entirely alleviate the tumor burden. According to the above data, however, this is not the case. […] In general, APC^Min/+ mice have a rather short lifespan and often die not only as a result of tumor burden but also due to development of severe anemia, substantial cachexia, and/or intestinal intussusceptions. To this end, C57BL/6 PARP-1^+/− and PARP-1^−/− mice were generated in the APC^Min/+ background (FIG. 39). PARP-1 heterozygosity provided remarkable protection against tumor development (FIG. 33A). […] Conversely, PARP-1 knockout promoted an increase in the number of small tumors.
Tumor models, assessment of tumor burden and adoptive transfer—For the azoxymethane/Dextran Sulfate Sodium (AOM/DSS)-induced tumorigenesis model, six to eight weeks old WT, PARP-1^+/− or PARP-1^−/− mice received a single dose (10 mg/kg) of AOM, i.p., followed by 4 cycles of 1.25% DSS provided in drinking water. Each cycle consisted of a week of DSS water separated by 2 weeks of regular water. […] At week 22 after the start of the experimental protocol, mice were sacrificed by CO2 asphyxiation. Colons, spleens, and blood were collected for analysis. Colons were opened longitudinally and washed with PBS to assess the tumor burdens using a dissecting microscope. For the APC^Min-mediated model, APC^Min/+, APC^Min/+PARP-1^+/−, or APC^Min/+PARP-1^−/− male mice were sacrificed at 16 weeks of age. […] Sacrificed mice were processed as described above except that the tumor burden was assessed along the whole intestinal track. Tumors were counted and divided in groups lower than 2 mm, 2-4 mm, and tumors bigger than 4 mm in diameter.
Tissue processing, immunohistochemistry, immunofluorescence and cytokines measurement—Some tissues were fixed in buffered formalin (10%), paraffin-embedded, then sectioned. Serial sections were subjected to H&E staining, immunohistochemistry (IHC) or immunofluorescence, as described (33), with antibodies to PCNA (Novusbio, Littleton, CO), COX-2 (Santa Cruz Biotechnology, Santa Cruz, CA), ICAM-1 (Santa Cruz Biotechnology), CD8 (Santa Cruz Biotechnology), or Gr1 (eBioscience, San Diego, USA) as previously described (34). Some of the sections were subjected to immunofluorescence with antibodies to CD8 or Gr1. Blood, collected by cardiac puncture, was run through a Microtainer Serum Separator tube (BD, Franklin Lake, NJ). The collected sera were immediately stored at −80° C. for future use and analysis. Cytokine levels were assessed for TNF-α (ELM-TNFα-1), IL-6 (ELM-IL-6-1), and MCP-1 (ELM-MCP1) by ELISA (all from RayBiotech, Norcross, GA) according to the manufacturer's instructions and recommendations.

Regarding `O=C(c1cc(Cc2n[nH]c(=O)c3ccccc23)ccc1F)N1CCN(C(=O)C2CC2)CC1` [olaparib], the systemic inflammation entry was “effective at blocking systemic inflammation”. Under “5 mg/kg i.p. twice a week”, the intestinal tumor burden result was “good protection against the tumor burden; also recorded: good protection against tumor development”. Besides, for the setting “5 mg/kg i.p. twice a week, listed as Olaparib”, the intestinal tumor burden entry was “reduces the tumor burden”. Besides, the intestinal tumor burden result (25 mg/kg i.p. twice a week) was “no protection against the burden; also recorded: no significant protection”. The “cachexia (body weight)” value (high dose (25 mg/kg)) is given as “did not”. Further, the “cachexia (body weight)” value (moderate dose (5 mg/kg)) is given as “protected against cachexia”.
